Patent US6358883B1, “Pesticidal and parasiticidal use of 1-aryl-1-(substituted thio, sulfinyl and sulfonyl)-2-nitroethane compounds” (American Cyanamid Company, priority 1998, dated 2002)

Assays:
Assay type in all cases: in vivo
[1] = tested on: Diabrotica virgifera virgifera Leconte, 2nd instar western corn rootworm (WCR); assay: Western corn rootworm (WCR) soil test; set-up: key: 0 = no effect; 1 = 10-25% kill; 2 = 26-35% kill; 3 = 36-45% kill; 4 = 46-55% kill; 5 = 56-65% kill; 6 = 66-75% kill; 7 = 76-85% kill; 8 = 86-99% kill; 9 = 100% kill
Procedure, shortened: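 Compound in 35% acetone/water applied to talc at 1.25 mg active ingredient per jar (about 50 kg/ha), solvent evaporated, then mixed with millet seed and moist soil. Ten 2nd-instar larvae per jar; mortality counted after 5 days, missing larvae scored dead.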

[2] = tested on: Spodoptera eridania, eggs-southern armyworm (SAW-Eggs); assay: Southern armyworm eggs (SAW-Eggs) treated diet test; set-up: key: 0 = no effect; 1 = 10-25% kill; 2 = 26-35% kill; 3 = 36-45% kill; 4 = 46-55% kill; 5 = 56-65% kill; 6 = 66-75% kill; 7 = 76-85% kill; 8 = 86-99% kill; 9 = 100% kill; conditions: mortality after 7 days
Experimental: Test solutions are prepared by dissolving the test compound in a 35% acetone in water mixture to give a concentration of 10,000 ppm. Subsequent dilutions are made with water as needed. Spodoptera eridania, Eggs-southern Armyworm and Diabrotica undecimpunctata howardi, Eggs-southern Corn Rootworm (SAW-Eggs) and (SCR-Eggs) Wells containing artificial diet are treated with the test solutions and dried. The appropriate insect eggs are then placed in the wells. The wells are covered with vented, adhesive, clear plastic covers. After 7 days, mortality counts are made. [table]

[3] = tested on: Tetranychus urticae (OP-resistant strain), 2-spotted spider mite (TSM); assay: 2-spotted spider mite (TSM) plant dip test; set-up: key: 0 = no effect; 1 = 10-25% kill; 2 = 26-35% kill; 3 = 36-45% kill; 4 = 46-55% kill; 5 = 56-65% kill; 6 = 66-75% kill; 7 = 76-85% kill; 8 = 86-99% kill; 9 = 100% kill; conditions: mortality after 2 days
Procedure, shortened: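 OP-resistant mites (~100 per leaf) were transferred onto Sieva lima bean primary leaves about 2 h before treatment. Infested plants were dipped for 3 s in compound from a 10,000 ppm stock in 35% acetone/water, diluted with water. Mortality was counted after 2 days.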

[4] = tested on: Spodoptera eridania, 2nd instar larvae, southern armyworm (SAW); assay: Southern armyworm (SAW) leaf dip test; set-up: key: 0 = no effect; 1 = 10-25% kill; 2 = 26-35% kill; 3 = 36-45% kill; 4 = 46-55% kill; 5 = 56-65% kill; 6 = 66-75% kill; 7 = 76-85% kill; 8 = 86-99% kill; 9 = 100% kill
Procedure, shortened: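 Compound is dissolved at 10,000 ppm in 35% acetone/water, then diluted with water. Lima bean leaves are dipped for 3 seconds, dried and placed with ten 2nd instar larvae on damp filter paper. Mortality, reduced feeding and molting interference are scored at 5 days.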

[5] = tested on: Aphis gossypii, cotton aphid (CA); assay: Cotton aphid (CA) cotyledon dip test; set-up: key: 0 = no effect; 1 = 10-25% kill; 2 = 26-35% kill; 3 = 36-45% kill; 4 = 46-55% kill; 5 = 56-65% kill; 6 = 66-75% kill; 7 = 76-85% kill; 8 = 86-99% kill; 9 = 100% kill; conditions: mortality after 5 days
Procedure, shortened: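 Cotyledon-stage cotton plants infested overnight via a heavily infested leaf, then dipped in test solution (compound in 35% acetone/water, diluted with water) and dried. Mortality counted after 5 days.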

[6] = tested on: C. elegans (Bristol strain); assay: Evaluation of test compounds against C. elegans (motility, 96-well plate); set-up: key: 9=complete kill in 4 hours; 8=complete kill in 24 hours; 7=markedly reduced motility in approximately 95% of worms in 24 hours; 0=normal motility, same as controls; conditions: motility at 4 and 24 hours
Procedure, shortened: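 Bristol-strain C. elegans in Na buffer added to wells containing dried compound (applied in 80% acetone) and incubated at 20 °C. Motility of adults and larvae scored subjectively but semi-quantitatively under a dissecting microscope at 4 and 24 h after immersion, plates tapped before reading.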

[7] = tested on: Diabrotica undecimpunctata howardi, eggs-southern corn rootworm (SCR-Eggs); assay: Southern corn rootworm eggs (SCR-Eggs) treated diet test; set-up: key: 0 = no effect; 1 = 10-25% kill; 2 = 26-35% kill; 3 = 36-45% kill; 4 = 46-55% kill; 5 = 56-65% kill; 6 = 66-75% kill; 7 = 76-85% kill; 8 = 86-99% kill; 9 = 100% kill; conditions: mortality after 7 days
Procedure, shortened: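 Compounds dissolved at 10,000 ppm in 35% acetone/water, diluted with water, applied to artificial diet in wells and dried. Southern corn rootworm or southern armyworm eggs placed on treated diet under vented covers; mortality counted after 7 days.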

[8] = tested on: M. incognita (Root Knot Nematode) larvae; assay: Evaluation of test compounds against M. incognita larvae in microtiter plate wells (movement score); conditions: larvae scored for movement after 20-24 hours; further: key: A score of '9' indicates inactive worms with a straight, sticklike morphology; A score of '8' indicates inactive worms with a limp, curled or curved morphology; A score of '7' indicates dead/paralyzed worms after 72 hours
Procedure, shortened: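 Newly emerged M. incognita larvae in S Medium (buffered salt solution), 50-65 worms per well, exposed to test compounds in sealed microtiter wells. Movement scored after 20-24 h incubation; wells with obviously dead/paralyzed larvae scored positive. A score of "7" denotes dead/paralyzed worms after […].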

Structure (SMILES) | WCR (50 ppm) rating [1] | SAW Eggs (300 ppm) rating [2] | TSM (300 ppm) rating [3] | SAW (300 ppm) rating [4] | CA (300 ppm) rating [5] | Rating Against C. elegans (150 ppm) [6] | SCR Eggs (1000 ppm) rating [7] | M. incognita (150 ppm) score [8]
O=C(O)CSC(C[N+](=O)[O-])c1c(F)c(F)c(F)c(F)c1F (centres unmarked) [Example 139] | 9 (9 = 100% kill) | 0 | 0 | 0 | 0 | 9 | 0 | 
CCCOC(=O)CSC(C[N+](=O)[O-])c1c(F)c(F)c(F)c(F)c1F (centres unmarked) [Example 144] | 9 (9 = 100% kill) | 0 | 0 | 0 | 0 | 7 | 0 | 
CCCCOC(=O)CSc1c(F)c(F)c(C(C[N+](=O)[O-])SCC(=O)OCCCC)c(F)c1F (centres unmarked) [Example 147] | 0 | 0 | 0 | 0 | 0 | 0 | 0 | 
CCCOC(=O)CSc1c(F)c(F)c(C(C[N+](=O)[O-])SCC(=O)OCCC)c(F)c1F (centres unmarked) [Example 145] | 0 | 0 | 0 | 0 | 0 | 0 | 0 | 
O=[N+]([O-])CC(SCc1ccccc1)c1ccco1 (centres unmarked) [Example 203] | 8 (8 = 86-99% kill) | 9 (9 = 100% kill) | 0 | 0 | 0 | 9 | 9 (9 = 100% kill) | 
CCOC(=O)CSc1c(F)c(F)c(C(C[N+](=O)[O-])SCC(=O)OCC)c(F)c1F (centres unmarked) [Example 143] | 0 | 0 | 0 | 0 | 0 | 0 | 0 | 
O=[N+]([O-])CC(SCc1ccccc1)c1c(F)c(F)c(SCc2ccccc2)c(F)c1F (centres unmarked) [Example 149] | 0 | 0 | 0 | 0 | 0 | 0 | 0 | 
CCCCOC(=O)CSC(C[N+](=O)[O-])c1c(F)c(F)c(F)c(F)c1F (centres unmarked) [Example 146] | 8 (8 = 86-99% kill) | 0 | 0 | 0 | 0 | 7 | 0 | 
COC(=O)CSC(C[N+](=O)[O-])c1c(F)c(F)c(F)c(F)c1F (centres unmarked) [Example 140] | 9 (9 = 100% kill) | 0 | 0 | 6 (6 = 66-75% kill) | 0 | 8 | 0 | 
C=CCSC(C[N+](=O)[O-])c1cc(OC)cc(OC)c1 (centres unmarked) [Example 3] |  | 0 |  |  |  | 0 | 0 | 
COC(=O)CSc1c(F)c(F)c(C(C[N+](=O)[O-])SCC(=O)OC)c(F)c1F (centres unmarked) [Example 141] | 0 | 0 | 0 | 0 | 0 | 8 | 0 | 
C=CCSC(C[N+](=O)[O-])c1cccs1 (centres unmarked) [Example 187] | 0 | 0 | 0 | 0 | 0 |  | 0 | 9
CCOC(=O)CSC(C[N+](=O)[O-])c1c(F)c(F)c(F)c(F)c1F (centres unmarked) [Example 142] | 9 (9 = 100% kill) | 0 | 0 | 0 | 4 (4 = 46-55% kill) | 8 | 0 | 
COC(=O)CSC(C[N+](=O)[O-])c1cccs1 (centres unmarked) [Example 182] | 0 | 0 | 0 | 0 | 0 |  | 0 | 9
CCCOC(=O)CSC(C[N+](=O)[O-])c1cccs1 (centres unmarked) [Example 189] | 0 | 0 | 0 | 0 | 0 |  | 0 | 9
CCCCOC(=O)CSC(C[N+](=O)[O-])c1cccs1 (centres unmarked) [Example 184] | 0 | 9 (9 = 100% kill) | 0 | 0 | 0 |  | 0 | 9
O=[N+]([O-])CC(SCc1ccccc1)c1c(F)c(F)c(F)c(F)c1F (centres unmarked) [Example 148] | 0 | 0 | 0 | 0 | 0 | 0 | 0 | 
O=C(O)CSC(C[N+](=O)[O-])c1cccnc1 (centres unmarked) [Example 179] | 0 | 0 | 0 | 0 | 0 |  | 0 | 9
COC(=O)CSC(C[N+](=O)[O-])c1ccco1 (centres unmarked) [Example 197] | 0 | 9 (9 = 100% kill) | 0 | 0 | 5 (5 = 56-65% kill) |  | 0 | 9
CCOC(=O)CSC(C[N+](=O)[O-])c1ccco1 (centres unmarked) [Example 198] | 7 (7 = 76-85% kill) | 9 (9 = 100% kill) | 0 | 0 | 0 |  | 0 | 9
CCCSC(C[N+](=O)[O-])c1ccco1 (centres unmarked) [Example 201] | 7 (7 = 76-85% kill) | 0 | 0 | 0 | 0 |  | 0 | 0
